# Measured values taken from patent US20170226139A1, “CRYSTALLINE SALTS OF (Z)-O-OCTADEC-9-EN-1-YL O,O-DIHYDROGEN PHOSPHOROTHIOATE” (priority 2013, published 2017).
# Columns and labels:
# Control CHO = test: Calcium-mobilization assay, untransfected Control CHO cells; format: cell-based, Chinese hamster; conditions: Cricetulus griseus, CHO
# Procedure: (§1) We investigated structure-activity relationships across species, LPAR subtypes and between Rx100 and two known process impurities encountered in manufacture: Rx103 (‘E’ isomer) and Rx200 (oleyl phosphate and impurity, which can be an Rx100 degradant along with oleyl alcohol). Rx100, Rx103, Rx200 and native LPA were investigated at different human LPAR subtypes. In addition, the activity of these compounds was evaluated at LPA2 receptors from the rhesus, rat and mouse species. Human LPA1/2/3 subtypes were transfected into mouse embryonic fibroblasts (MEF) or rat hepatoma cells (RH7777)—both of which are normally non-responsive or null to LPA. Human LPA4 was transfected into Chinese hamster ovary (CHO) cells and LPA5 into the B103 neuroblastoma cell line. […] The B103 rat neuroblastoma cell line is endogenously nonresponsive to LPA but expresses heterologous LPA5 receptors well. […] LPAR activation elicits a G-protein-mediated transient rise in intracellular calcium level that is proportional to the concentration of LPA applied. The intracellular calcium level was quantified by the calcium-selective fluorescent indicator FURA-2 (e.g., increased intracellular calcium surge=increased fluorescence).
# [1] = test system: female murine Animal Model of GI-ARS (TAI); test: Survival after total abdominal irradiation (TAI), murine model of GI-ARS (UTHSC, 2010); format: in vivo; conditions: UTHSC 2010 (TAI), 0.1 mg/kg, start +24, 15.0 Gy, non-GLP
# Procedure: These Animal Model studies were all conducted using partial body irradiation (PBI) with tibial bone marrow sparing except the earliest study which was performed with Total Abdominal Irradiation (TAI). The male Rhesus macaque model was developed by MacVittie. The female inbred murine PBI GI-ARS Animal Model was developed by the inventors. […] Differences in radiation sensitivity by gender in rodent species are well appreciated. We are not aware of PBI GI-ARS models other than these that meet criteria required to conduct a prospective, blinded, controlled, randomized study of efficacy.
# [2] = target: LPA2 receptors from the rat (Rattus norvegicus, UniProt A0ABK0LT65); test: Calcium-mobilization assay (FURA-2), rat LPA2; format: cell-based
# Procedure: as §1
# Human LPA4 = target: T1, Human LPA4 (Homo sapiens, UniProt Q99677); test: Calcium-mobilization assay (FURA-2), human LPA4 in CHO cells; format: cell-based
# T1 construct: expressed in transfected cells; host or cells: CHO
# Procedure: as §1
# Human LPA2 = Human LPA2 (Homo sapiens, UniProt Q9HBW0); test: Calcium-mobilization assay (FURA-2), human LPA2 transfected cells; format: cell-based; design: expressed in transfected cells; host or cells: mouse embryonic fibroblasts (MEF) or rat hepatoma RH7777
# Procedure: as §1
# cynomolgus monkeys = test: Single-dose range-finding and 7-day repeat-dose toxicity in monkeys; format: in vivo
# Procedure: In the first phase of the range-finding monkey study, one male and one female cynomolgus monkeys received single subcutaneous doses of Rx100.Lysine at 0.3, 1, 3, 10, 25 and 75 mg/kg of free acid. The vehicle for all doses was Sterile water for injection with 10 mM L-histidine. In the 7-day repeat-dose phase, two males and females were dosed subcutaneously at 10 mg/kg/day. Parameters evaluated included clinical signs, body weight, food consumption, and clinical and anatomic pathology. […] Animals were subsequently sacrificed. […] No effects on body weights were seen.
# [3] = Solubility measurement by gravimetric method in various solvents; format: physicochemical; conditions: for solubility: thermodynamic from solid
# Procedure: In addition, the Rx100 L-Lysate salt was further characterized under abbreviated polymorph evaluation. First, the solubility measurement by gravimetric method was performed. Briefly, excess amount of solid was slurried in various solvents at ambient conditions and elevated temperature (50° C.) for minimum of 24 hours. The slurry was centrifuged using a temperature controlled centrifuge and the supernatant was used for gravimetric method. Table 15 presents the solubility data measured using this gravimetric method in various solvents for the L-Lysine salt. In cases where the solvent dissolved all of the solid, the value is shown as “greater than”.
# physchem = conditions: thermodynamic from solid
# [4] = abbreviated polymorph screening
# LPA2 receptors from the rat, sequence (A0ABK0LT65 1-348): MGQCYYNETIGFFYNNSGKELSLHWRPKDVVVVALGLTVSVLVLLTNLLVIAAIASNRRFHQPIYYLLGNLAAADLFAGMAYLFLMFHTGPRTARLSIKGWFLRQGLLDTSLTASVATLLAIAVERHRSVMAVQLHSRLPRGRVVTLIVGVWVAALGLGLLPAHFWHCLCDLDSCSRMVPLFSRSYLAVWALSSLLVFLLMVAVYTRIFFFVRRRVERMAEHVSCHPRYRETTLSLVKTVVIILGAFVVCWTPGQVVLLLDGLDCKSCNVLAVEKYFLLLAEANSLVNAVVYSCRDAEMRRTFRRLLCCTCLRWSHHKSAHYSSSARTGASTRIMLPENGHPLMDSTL
# Human LPA2, sequence (Q9HBW0 whole entry): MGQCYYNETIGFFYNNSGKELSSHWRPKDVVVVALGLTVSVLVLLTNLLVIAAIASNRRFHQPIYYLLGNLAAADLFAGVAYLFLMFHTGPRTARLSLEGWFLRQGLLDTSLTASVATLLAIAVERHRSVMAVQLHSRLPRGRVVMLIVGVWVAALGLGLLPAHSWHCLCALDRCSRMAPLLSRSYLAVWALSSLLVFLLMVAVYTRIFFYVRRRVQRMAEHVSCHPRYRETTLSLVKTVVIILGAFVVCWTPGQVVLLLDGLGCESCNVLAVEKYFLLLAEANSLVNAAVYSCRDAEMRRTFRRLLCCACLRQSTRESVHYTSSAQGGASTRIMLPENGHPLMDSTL
# T1 sequence (Q99677 whole entry): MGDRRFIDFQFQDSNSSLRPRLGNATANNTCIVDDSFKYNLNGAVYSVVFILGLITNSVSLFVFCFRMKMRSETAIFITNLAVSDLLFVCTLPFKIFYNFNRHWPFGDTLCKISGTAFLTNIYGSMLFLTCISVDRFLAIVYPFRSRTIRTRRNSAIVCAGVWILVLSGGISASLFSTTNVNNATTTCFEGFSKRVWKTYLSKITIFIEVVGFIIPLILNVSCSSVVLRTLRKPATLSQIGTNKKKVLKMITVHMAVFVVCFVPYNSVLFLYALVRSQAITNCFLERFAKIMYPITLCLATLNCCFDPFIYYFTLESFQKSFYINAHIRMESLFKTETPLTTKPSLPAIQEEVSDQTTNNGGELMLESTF
smiles,measurement,setting,value
"CCCCCCCC/C=C\CCCCCCCCOP(O)(O)=S [Rx100, (Z)—O-octadec-9-en-1-yl O,O-dihydrogen phosphorothioate]",EC50,Control CHO,> 5000 nM
same,Emax,Control CHO; read-out: Emax (% of LPA),20%
same,"Survival, Rx100 arm (survivors/animals)",[1]; single cell under Day 10/Day ≧30,10/14
same,Survival advantage,"[1]; single cell under Day 10/Day ≧30, vs vehicle",42%
same,EC50,[2],76 nM
same,Emax,[2]; read-out: Emax (% of LPA),100%
same,EC50,Human LPA4,> 5000 nM
same,Emax,"Human LPA4; CHO, read-out: Emax (% of LPA)",97%
same,EC50,Human LPA2,124 nM
same,Emax,Human LPA2; read-out: Emax (% of LPA),100%
"CCCCCCCC/C=C\CCCCCCCCOP(O)(O)=S [Rx100.L-Lysine, (Z)—O-octadec-9-en-1-yl O,O-dihydrogen phosphorothioate]",effects on body weights,"cynomolgus monkeys; 10 mg/kg/day SC, 7 days",No effects
same,signs in repeated dose phase,"cynomolgus monkeys; 10 mg/kg/day SC, 7 days",intermittent food consumption and adverse effects at the injection sites
same,clinical signs,cynomolgus monkeys; single SC dose 75 mg/kg,animals became hunched and were obviously in pain
same,treatment related effects,cynomolgus monkeys; single SC doses up to and including 25 mg/kg,no meaningful treatment related effects
same,"Solubility, gravimetric method","[3]; EtOH:water (v/v) [1:1], 25° C.",Gelled
same,"Solubility, gravimetric method","[3]; EtOH:water (v/v) [7:3], 25° C.",Gelled
same,"Solubility, gravimetric method","[3]; EtOH:water (v/v) [7:3], 50° C.",Gelled
same,"Solubility, gravimetric method","[3]; IPA:water (v/v) [7:3], 25° C.",Gelled
same,"Solubility, gravimetric method","[3]; IPA:water (v/v) [7:3], 50° C.",Gelled
same,"Solubility, gravimetric method","[3]; MeOH:water (v/v) [1:1], 25° C.",Gelled
same,"Solubility, gravimetric method","[3]; MeOH:water (v/v) [7:3], 50° C.",Gelled
same,Solubility in most aqueous solvent systems,[3]; [4],moderate to high solubility
same,Solubility in organic systems,[3]; [4],limited solubility
same,solubility,"[3]; aqueous with cosolvent or surfactant or cyclodextrin, EtOH:water (v/v) [1:1], 50° C.",> 68 mg/mL
same,solubility,"[3]; aqueous with cosolvent or surfactant or cyclodextrin, EtOH:water (v/v) [3:7], 25° C.",> 40 mg/mL
same,solubility,"[3]; aqueous with cosolvent or surfactant or cyclodextrin, EtOH:water (v/v) [3:7], 50° C.",> 84 mg/mL
same,solubility,"[3]; aqueous with cosolvent or surfactant or cyclodextrin, IPA:water (v/v) [1:1], 25° C.",> 40 mg/mL
same,solubility,"[3]; aqueous with cosolvent or surfactant or cyclodextrin, IPA:water (v/v) [1:1], 50° C.",> 86 mg/mL
same,solubility,"[3]; aqueous with cosolvent or surfactant or cyclodextrin, IPA:water (v/v) [3:7], 25° C.",> 46 mg/mL
same,solubility,"[3]; aqueous with cosolvent or surfactant or cyclodextrin, IPA:water (v/v) [3:7], 50° C.",> 70 mg/mL
same,solubility,"[3]; aqueous with cosolvent or surfactant or cyclodextrin, MeOH:water (v/v) [1:1], 50° C.",> 80 mg/mL
same,solubility,"[3]; aqueous with cosolvent or surfactant or cyclodextrin, MeOH:water (v/v) [3:7], 25° C.",> 48 mg/mL
same,solubility,"[3]; aqueous with cosolvent or surfactant or cyclodextrin, MeOH:water (v/v) [3:7], 50° C.",> 86 mg/mL
same,solubility,"[3]; aqueous with cosolvent or surfactant or cyclodextrin, MeOH:water (v/v) [7:3], 25° C.",20 mg/mL
same,solubility,"[3]; organic solvent or mixture, EtOH, 50° C.",3 mg/mL
same,solubility,"[3]; organic solvent or mixture, Heptane, 50° C.",3 mg/mL
same,solubility,"[3]; organic solvent or mixture, IPA, 50° C.",5 mg/mL
same,solubility,"[3]; organic solvent or mixture, MTBE, 50° C.",4 mg/mL
same,solubility,"[3]; organic solvent or mixture, MeOH, 50° C.",4 mg/mL
same,solubility,"[3]; Water, 25° C.",> 48 mg/mL
same,solubility,"[3]; Water, 50° C.",> 76 mg/mL
same,solubility,"physchem; simulated formulation solvent, aqueous with cosolvent or surfactant or cyclodextrin",> 43 mg/mL
same,solubility,physchem; water,> 48 mg/mL
